Converted amounts (≈) assume the structure as drawn. Like-named read-outs stand apart in the source and are kept apart here.
Assays:
[1] = Mouse urinary recovery; format: in vivo, mice; details: mouse, urine, po, 20 mg/kg; for dose excreted at 24 h: p.o.
[2] = tested on: S. aureus BX-1633-2; test: MIC, agar dilution technique (Mueller-Hinton Agar); format: cell-based; details: Staphylococcus aureus, BX16332, read-out: Minimum Inhibitory Concentration
Source text: (§1) Each of these groups of organisms is constituted of five individual strains of microorganism. The Gp-Ia organisms are Gram-positive staphylococci which are sensitive to penicillin. The Gp-Ib organisms are Gram-positive staphylococci which are resistant to penicillin and produce penicillinase. The Gn-Ia organisms are Gram-negative bacteria which are sensitive to ampicillin and cephalothin. The Gn-Ib organisms are Gram-negative bacteria which are resistant to ampicillin and cephalothin.

[3] = tested on: E coli RGN-823; test: MIC, agar dilution technique (Mueller-Hinton Agar); format: cell-based; details: Escherichia coli, RGN823, Gn-Ib, ampicillin and cephalothin resistant, read-out: Minimum Inhibitory Concentration
Source text: as §1

[4] = tested on: S. aureus A9602; test: MIC, agar dilution technique (Mueller-Hinton Agar); format: cell-based; details: Staphylococcus aureus, A9602, read-out: Minimum Inhibitory Concentration
Source text: as §1

[5] = tested on: K. pneumoniae D11; test: MIC, agar dilution technique (Mueller-Hinton Agar); format: cell-based; details: Klebsiella pneumoniae, D11, read-out: Minimum Inhibitory Concentration
Source text: as §1

[6] = tested on: E. coli A20341-1; test: MIC, agar dilution technique (Mueller-Hinton Agar); format: cell-based; details: Escherichia coli, A203411, read-out: Minimum Inhibitory Concentration
Source text: as §1

[7] = tested on: E. coli A15148; test: MIC, agar dilution technique (Mueller-Hinton Agar); format: cell-based; details: Escherichia coli, A15148, read-out: Minimum Inhibitory Concentration
Source text: as §1

[8] = tested on: S. aureus A15092; test: MIC, agar dilution technique (Mueller-Hinton Agar); format: cell-based; details: Staphylococcus aureus, Gp-Ib, penicillin resistant, read-out: Minimum Inhibitory Concentration
Source text: as §1

[9] = tested on: S. aureus No. 193; test: MIC, agar dilution technique (Mueller-Hinton Agar); format: cell-based; details: Staphylococcus aureus, Gp-Ib, penicillin resistant, read-out: Minimum Inhibitory Concentration
Source text: as §1

[10] = tested on: S. aureus A9497; test: MIC, agar dilution technique (Mueller-Hinton Agar); format: cell-based; details: Staphylococcus aureus, Gp-Ia, penicillin sensitive, read-out: Minimum Inhibitory Concentration
Source text: as §1

[11] = tested on: S. aureus Russell; test: MIC, agar dilution technique (Mueller-Hinton Agar); format: cell-based; details: Staphylococcus aureus, read-out: Minimum Inhibitory Concentration
Source text: as §1

[12] = tested on: E. coli Juhl; test: MIC, agar dilution technique (Mueller-Hinton Agar); format: cell-based; details: Escherichia coli, read-out: Minimum Inhibitory Concentration
Source text: as §1

[13] = tested on: K. pneumoniae A20346; test: MIC, agar dilution technique (Mueller-Hinton Agar); format: cell-based; details: Klebsiella pneumoniae, A20346, read-out: Minimum Inhibitory Concentration
Source text: as §1

[14] = tested on: S. aureus Terajima; test: MIC, agar dilution technique (Mueller-Hinton Agar); format: cell-based; details: Staphylococcus aureus, Gp-Ia, penicillin sensitive, read-out: Minimum Inhibitory Concentration
Source text: as §1

[15] = tested on: E. coli A9660; test: MIC, agar dilution technique (Mueller-Hinton Agar); format: cell-based; details: Escherichia coli, A9660, read-out: Minimum Inhibitory Concentration
Source text: as §1

[16] = tested on: S. aureus A9534; test: MIC, agar dilution technique (Mueller-Hinton Agar); format: cell-based; details: Staphylococcus aureus, Gp-Ia, penicillin sensitive, read-out: Minimum Inhibitory Concentration
Source text: as §1

[17] = tested on: S. aureus Smith; test: MIC, agar dilution technique (Mueller-Hinton Agar); format: cell-based; details: Staphylococcus aureus, Gp-Ia, penicillin sensitive, read-out: Minimum Inhibitory Concentration
Source text: as §1

[18] = tested on: E. coli Juhl; test: Protective dose for mice infected with lethal inoculum; format: in vivo; details: 50% survival after five days
Source text: (§2) The data in Table 2 are results of protective doses (PD50) for mice infected with a lethal inoculum of bacteria. Two different bacteria were employed in the studies, one a Gram-positive organism (S. aureus Smith) and the other a Gram-negative organism (E. coli Juhl). The PD50 is that dose which, when administered to a group of injected mice, results in 50% survival after five days. Normally untreated infected mice die within three days following injection of the lethal inoculum.

[19] = tested on: S. aureus Smith; test: as above; format: in vivo; details: po, 50% survival after five days
Source text: as §2

[20] = tested on: N. gonorrheae A20155; test: In vitro activity against fastidious bacteria; format: cell-based
Source text: (§3) Table 5 contains comparative data for in vitro antibacterial activity against fastidious bacteria.

[21] = tested on: H. influenzae A22483; test: In vitro activity against fastidious bacteria; format: cell-based; details: Haemophilus influenzae, A22483
Source text: as §3

[22] = tested on: S. pyogenes A9604; test: In vitro activity against fastidious bacteria; format: cell-based; details: Streptococcus pyogenes, A9604
Source text: as §3

[23] = tested on: H. influenzae A22482; test: In vitro activity against fastidious bacteria; format: cell-based; details: Haemophilus influenzae, A22482
Source text: as §3

[24] = tested on: H. influenzae A21523; test: In vitro activity against fastidious bacteria; format: cell-based; details: Haemophilus influenzae, A21523
Source text: as §3

[25] = tested on: S. pyogenes A20201; test: In vitro activity against fastidious bacteria; format: cell-based; details: Streptococcus pyogenes, A20201
Source text: as §3

[26] = tested on: H. influenzae A9729; test: In vitro activity against fastidious bacteria; format: cell-based; details: Haemophilus influenzae, A9729
Source text: as §3

[27] = tested on: S. pyogenes A20065; test: In vitro activity against fastidious bacteria; format: cell-based; details: Streptococcus pyogenes, A20065
Source text: as §3

[28] = tested on: S. pyogenes A15040; test: In vitro activity against fastidious bacteria; format: cell-based; details: Streptococcus pyogenes, A15040
Source text: as §3

[29] = tested on: S. pneumoniae A9585; test: In vitro activity against fastidious bacteria; format: cell-based; details: Streptococcus pneumoniae, A9585
Source text: as §3

[30] = tested on: S. pneumoniae Type II; test: In vitro activity against fastidious bacteria; format: cell-based; details: Streptococcus pneumoniae
Source text: as §3

[31] = tested on: S. pneumoniae A15069; test: In vitro activity against fastidious bacteria; format: cell-based; details: Streptococcus pneumoniae, A15069
Source text: as §3

[32] = tested on: H. influenzae A9833; test: In vitro activity against fastidious bacteria; format: cell-based; details: Haemophilus influenzae, A9833
Source text: as §3

[33] = tested on: N. meningitidis A20048; test: In vitro activity against fastidious bacteria; format: cell-based; details: Neisseria meningitidis, A20048
Source text: as §3

[34] = tested on: S. pyogenes s-23; test: In vitro activity against fastidious bacteria; format: cell-based; details: Streptococcus pyogenes, S23
Source text: as §3

[35] = tested on: H. influenzae A20177; test: In vitro activity against fastidious bacteria; format: cell-based; details: Haemophilus influenzae, A20177
Source text: as §3

[36] = tested on: N. meningitidis A21497; test: In vitro activity against fastidious bacteria; format: cell-based; details: Neisseria meningitidis, A21497
Source text: as §3

[37] = tested on: N. meningitidis A21495; test: In vitro activity against fastidious bacteria; format: cell-based; details: Neisseria meningitidis, A21495
Source text: as §3

[38] = tested on: S. pyogenes Dick; test: In vitro activity against fastidious bacteria; format: cell-based; details: Streptococcus pyogenes
Source text: as §3

[39] = tested on: N. meningitidis A21487; test: In vitro activity against fastidious bacteria; format: cell-based; details: Neisseria meningitidis, A21487
Source text: as §3

[40] = tested on: S. pneumoniae A20759; test: In vitro activity against fastidious bacteria; format: cell-based; details: Streptococcus pneumoniae, A20759
Source text: as §3

[41] = tested on: N. gonorrheae A15112; test: In vitro activity against fastidious bacteria; format: cell-based
Source text: as §3

[42] = tested on: N. gonorrheae A20154; test: In vitro activity against fastidious bacteria; format: cell-based
Source text: as §3

[43] = tested on: H. influenzae A20193; test: In vitro activity against fastidious bacteria; format: cell-based; details: Haemophilus influenzae, A20193
Source text: as §3

[44] = tested on: N. gonorrheae A20143; test: In vitro activity against fastidious bacteria; format: cell-based
Source text: as §3

Which dose excreted at 2 h ([1]; 0-2 hr) does the source give for `N[C@@H](C(=O)N[C@@H]1C(=O)N2C(C(=O)O)=C(Cl)CS[C@H]12)c1ccccc1` [cefaclor] here?
The dose excreted at 2 h was 60%.

What about the dose excreted at 4 h ([1]; 2-4 hr) of the same compound?
Its dose excreted at 4 h is 6.7%.

And the dose excreted at 6 h ([1]; 4-6 hr)?
Its dose excreted at 6 h is 0.3%.

What about the dose excreted at 24 h ([1]; 6-24 hr, read-out: Mouse urinary recovery 6-24 hr) of the same compound?
The dose excreted at 24 h was 1.5%.

What about the dose excreted at 24 h ([1]; total, read-out: Mouse urinary recovery Total) of the same compound?
The dose excreted at 24 h was 69%.

What about the MIC [2] of the same compound?
The MIC was 6.3 µg/mL (≈ 17.1 µM).

And the MIC [3]?
Its MIC is 25 µg/mL (≈ 68 µM).

And the MIC [4]?
The MIC was 3.1 µg/mL (≈ 8.43 µM).

And the MIC [5]?
Its MIC is 0.8 µg/mL (≈ 2.18 µM).

What about the MIC [6] of the same compound?
Its MIC is 6.3 µg/mL (≈ 17.1 µM).

What about the MIC [7] of the same compound?
Its MIC is 25 µg/mL (≈ 68 µM).

And the MIC [8]?
Its MIC is 6.3 µg/mL (≈ 17.1 µM).

And the MIC [9]?
Its MIC is 6.3 µg/mL (≈ 17.1 µM).

What about the MIC [10] of the same compound?
The MIC was 0.8 µg/mL (≈ 2.18 µM).

What about the MIC [11] of the same compound?
Its MIC is 3.1 µg/mL (≈ 8.43 µM).

What about the MIC [12] of the same compound?
The MIC was 0.8 µg/mL (≈ 2.18 µM).

What about the MIC [13] of the same compound?
The MIC was 6.3 µg/mL (≈ 17.1 µM).

And the MIC [14]?
Its MIC is 0.4 µg/mL (≈ 1.09 µM).

And the MIC [15]?
The MIC was 0.8 µg/mL (≈ 2.18 µM).

What about the MIC [16] of the same compound?
Its MIC is 0.8 µg/mL (≈ 2.18 µM).

And the MIC [17]?
The MIC was 0.8 µg/mL (≈ 2.18 µM).

And the “PD50 (protective dose)” value ([18]; im)?
The value was 0.8.

And the “PD50 (protective dose)” value ([18]; po)?
Its value is 1.1.

What about the “PD50 (protective dose)” value [19] of the same compound?
Its value is 0.20.

What about the MIC [20] of the same compound?
The MIC was 0.8 µg/mL (≈ 2.18 µM).

And the MIC [21]?
The MIC was 0.8 µg/mL (≈ 2.18 µM).

And the MIC [22]?
Its MIC is 0.2 µg/mL (≈ 0.544 µM).

And the MIC [23]?
The MIC was 0.8 µg/mL (≈ 2.18 µM).

What about the MIC [24] of the same compound?
The MIC was 0.8 µg/mL (≈ 2.18 µM).

And the MIC [25]?
The MIC was 0.2 µg/mL (≈ 0.544 µM).

And the MIC [26]?
The MIC was 0.8 µg/mL (≈ 2.18 µM).

And the MIC [27]?
Its MIC is 0.2 µg/mL (≈ 0.544 µM).

What about the MIC [28] of the same compound?
Its MIC is 0.2 µg/mL (≈ 0.544 µM).

What about the MIC [29] of the same compound?
Its MIC is 0.8 µg/mL (≈ 2.18 µM).

What about the MIC [30] of the same compound?
Its MIC is 0.8 µg/mL (≈ 2.18 µM).

And the MIC [31]?
Its MIC is 3.1 µg/mL (≈ 8.43 µM).

And the MIC [32]?
The MIC was 0.8 µg/mL (≈ 2.18 µM).

What about the MIC [33] of the same compound?
The MIC was 0.8 µg/mL (≈ 2.18 µM).

What about the MIC [34] of the same compound?
The MIC was 0.2 µg/mL (≈ 0.544 µM).

And the MIC [35]?
Its MIC is 0.8 µg/mL (≈ 2.18 µM).

And the MIC [36]?
Its MIC is 0.8 µg/mL (≈ 2.18 µM).

What about the MIC [37] of the same compound?
Its MIC is 0.8 µg/mL (≈ 2.18 µM).

What about the MIC [38] of the same compound?
Its MIC is 0.2 µg/mL (≈ 0.544 µM).

And the MIC [39]?
Its MIC is 0.8 µg/mL (≈ 2.18 µM).

What about the MIC [40] of the same compound?
The MIC was 3.1 µg/mL (≈ 8.43 µM).

And the MIC [41]?
Its MIC is 0.8 µg/mL (≈ 2.18 µM).

And the MIC [42]?
Its MIC is 0.8 µg/mL (≈ 2.18 µM).

And the MIC [43]?
The MIC was 0.8 µg/mL (≈ 2.18 µM).

And the MIC [44]?
Its MIC is 0.8 µg/mL (≈ 2.18 µM).

Source: patent US4619925A, “3-Propenyl cephalosporin derivatives” (priority 1985, dated 1986)
